Legend:
Rattus norvegicus [1] = assay: Tested for PCA activity in rat at 200 mg/kg dose; format: functional
Rattus norvegicus [2] = assay: Tested for antigenic challenge time, time measured was immediate when compound was administered before challenge in rat; Immed = Immediate; format: functional, organism-based
Rattus norvegicus [3] = assay: Tested for PCA activity of compound in rat at 1.0 mg/kg intravenous dose; format: functional
Rattus norvegicus [4] = assay: Tested for PCA activity of compound in rat at 5 mg/kg intravenous dose; format: functional
Rattus norvegicus [5] = assay: Tested for antigenic challenge time, time measured was immediate when compound was administered before challenge in rat;Immed = Immediate; format: functional, organism-based
Rattus norvegicus [6] = assay: Tested for PCA activity of compound in rat at 2.5 mg/kg intravenous dose; format: functional
Rattus norvegicus [7] = assay: Tested for anti PCA- activity when compound was administered intravenously 60 min before challenge in rat; format: functional; conditions: iv
Rattus norvegicus [8] = assay: PCA activity of compound in rat at 100 mg/kg dose; format: functional
Rattus norvegicus [9] = assay: Tested for PCA activity of compound in rat at 25 mg/kg dose; format: functional
Rattus norvegicus [10] = assay: Tested for PCA activity of compound in rat at 50 mg/kg dose; format: functional
Rattus norvegicus [11] = assay: Tested for antigenic challenge time, time measured was immediate when compound was administered before challenge in rat; immediate; format: functional, organism-based
Rattus norvegicus [12] = assay: Tested for PCA activity of compound in rat at 10 mg/kg intravenous dose; format: functional
Rattus norvegicus [13] = assay: Tested for anti PCA- activity when compound was administered orally 60 min before challenge in exp2; format: functional; conditions: po
Rattus norvegicus [14] = assay: Tested for anti PCA- activity when compound was administered orally 60 min before challenge in exp1; format: functional; conditions: po
Rattus norvegicus [15] = assay: Tested for PCA activity of compound in rat at 50 mg/kg dose at 60 min challenge time.; format: functional; conditions: 1 h
Rattus norvegicus [16] = assay: Tested for anti PCA- activity when compound was administered perorally 60 min before challenge in; format: functional; conditions: po

SMILES	inhibition in vivo at 200 mg/kg (Rattus norvegicus [1]) [%]	inhibition in vivo at 100 mg/kg (Rattus norvegicus [8]) [%]	also measured
CCN(CC)CCNC(=O)c1ccc(NC(=O)COc2ccc(Cl)cc2)c(OC)c1	20		
CCN(CC)CCNC(=O)c1ccc(NC(=O)COc2ccc(Cl)cc2)cc1	0		
O=C([O-])c1cc(=O)c2c(OCC(O)COc3cccc4oc(C(=O)[O-])cc(=O)c34)cccc2o1.[Na+].[Na+] [CROMOLYN SODIUM]			Challenge time (Rattus norvegicus [2]): Immed; inhibition in vivo at 1 mg/kg (Rattus norvegicus [3]): 28%; inhibition in vivo at 5 mg/kg (Rattus norvegicus [4]): 78%; Challenge time (Rattus norvegicus [5]): Immed; inhibition in vivo at 2.5 mg/kg (Rattus norvegicus [6]): 58%; ED50 (Rattus norvegicus [7]): 2 mg/kg
CCN(CC)CCNC(=O)c1ccc(NC(=O)COc2ccccc2)c(OC)c1	20		
COc1cc(NC(=O)COc2ccc(Cl)cc2)c(Cl)cc1C(=O)NCc1cccnc1	20		
CCN(CC)CCNC(=O)c1ccc(Cl)c(NC(=O)COc2ccc(Cl)cc2)c1		7	
CCN(CC)CCNC(=O)c1cccc(NC(=O)COc2ccc(Cl)cc2)c1		7	
CCN(CC)CCNC(=O)c1cc(Cl)c(NC(=O)COc2ccccc2Cl)cc1OC	0		
CCN(CC)CCNC(=O)c1cc(Cl)c(NC(=O)CSc2ccccc2)cc1OC		26	
CCN(CC)CCNC(=O)c1cc(Cl)c(NC(=O)COc2ccc(Cl)c(Cl)c2)cc1OC.Cl	0	0	
COc1cc(NC(=O)COc2ccc(Cl)cc2)c(Cl)cc1NCCN1CCCC1	20		
CCN1CCCC1CNC(=O)c1cc(Cl)c(NC(=O)COc2ccc(Cl)cc2)cc1OC (stereo not drawn)			inhibition in vivo at 25 mg/kg (Rattus norvegicus [9]): 53%; inhibition in vivo at 50 mg/kg (Rattus norvegicus [10]): 60%
CCN(CC)CCNC(=O)c1cc(Cl)c(NC(=O)C(Oc2ccc(Cl)cc2)Oc2ccc(Cl)cc2)cc1OC	0		
COc1cc(NC(=O)COc2ccc(Cl)cc2)c(Cl)cc1C(=O)N1CCN(C/C=C/c2ccccc2)CC1		0	
CCN(CC)CCNC(=O)c1cc(Cl)c(NC(=O)C(C)(C)Oc2ccc(Cl)cc2)cc1OC.Cl	20	0	
CCN(CC)CCNC(=O)c1cc(Cl)c(NC(=O)COc2ccc(F)cc2)cc1OC	67	33	
CCN(CC)CCNC(=O)c1cc(Cl)c(NC(=O)COc2ccc(I)cc2)cc1OC	27	0	
CCN(CC)CCNC(=O)c1cc(Cl)c(NC(=O)COc2cccc(Cl)c2Cl)cc1OC	0		
CCN(CC)CCNC(=O)c1cc(Cl)ccc1NC(=O)COc1ccc(F)cc1		0	

SMILES	inhibition in vivo at 200 mg/kg (Rattus norvegicus [1]) [%]	inhibition in vivo at 100 mg/kg (Rattus norvegicus [8]) [%]	also measured
CCN(CC)CCNC(=O)c1cc(Cl)c(NC(=O)COc2ccc(Cl)cc2Cl)cc1OC	0		
CCN(CC)CCNC(=O)c1cc(Cl)c(N)cc1OC [METOCLOPRAMIDE]		14	Challenge time (Rattus norvegicus [11]): Immediate; inhibition in vivo at 10 mg/kg (Rattus norvegicus [12]): 84%
CCN(CC)CCNC(=O)c1cc(Cl)c(NC(=O)C(C)Oc2ccc(Cl)cc2)cc1OC.Cl (stereo not drawn)	32	62	ED50 (Rattus norvegicus [13]): 60.9 mg/kg; ED50 (Rattus norvegicus [14]): 64.5 mg/kg; inhibition in vivo at 50 mg/kg (Rattus norvegicus [10]): 41%
COc1cc(NC(=O)COc2ccc(Cl)cc2)c(Cl)cc1C(=O)N1CCN(C(c2ccccc2)c2ccccc2)CC1		0	
CCN(CC)CCNC(=O)c1cc(Cl)c(NC(=O)COc2cccc(C(F)(F)F)c2)cc1OC.Cl	40	53	
CCN(CC)CCNC(=O)c1cc(Cl)c(NC(=O)COc2ccc(C)cc2)cc1OC		22	
CCN(CC)CCNC(=O)c1cc(Cl)c(NC(=O)COc2ccc(OC)cc2)cc1OC.Cl	33	53	
CCN(CC)CCNC(=O)c1cc(Cl)c(NC(=O)COc2ccccc2)cc1OC	67	47	
CCN(CC)CCNC(=O)c1cc(NC(=O)COc2ccc(Cl)cc2)ccc1OC(C)=O		0	
CCN(CC)CCNC(=O)c1cc(Cl)c(NC(=O)COc2ccc(Cl)cc2)cc1OC.Cl [CLOXACEPRIDE HYDROCHLORIDE]	75	69	ED50 (Rattus norvegicus [13]): 46.9 mg/kg; ED50 (Rattus norvegicus [14]): 49 mg/kg; inhibition in vivo at 50 mg/kg (Rattus norvegicus [15]): 49%
O=C(O)c1ccc2oc3ccc(OCCO)cc3c(=O)c2c1		71	
COc1cc(NC(=O)COc2ccc(Cl)cc2)c(Cl)cc1C(=O)O	0		
CCN(CC)CCNC(=O)c1ccc(NC(=O)COc2ccc(Cl)cc2)c(Cl)c1.O=C(O)CC(O)(CC(=O)O)C(=O)O	0	14	
COc1cc(NC(=O)COc2ccc(Cl)cc2)c(Cl)cc1C(=O)N1CCN(C)CC1		0	
Cn1c(=O)c2nc[nH]c2n(C)c1=O.O [THEOPHYLLINE]			ED50 (Rattus norvegicus [16]): 47.2 mg/kg
CCN(CC)CCCNC(=O)c1cc(Cl)c(NC(=O)COc2ccc(Cl)cc2)cc1OC	20		
CCN(CC)CCNC(=O)c1cc(Cl)c(NC(=O)CNc2ccccc2)cc1OC		5	
CCOC(=O)c1cc(Cl)c(NC(=O)COc2ccc(Cl)cc2)cc1OC	20	93	
CCN(CC)CCNC(=O)c1cc(Cl)ccc1NC(=O)COc1ccc(Cl)cc1		0	
